The source of these data is article PMC7821181, “MS Binding Assays for Glycine Transporter 2 (GlyT2) Employing Org25543 as Reporter Ligand” (Chemmedchem, 2020).

Assay [1] has as its system GlyT2. The note with it: ref 23, 27; read-out: IC50 (literature range); cited from earlier work.
In assay [2] the target is T1, hGlyT2 (Homo sapiens, UniProt Q9Y345).
T1 construct: host or cells: HEK293 cells stably expressing hGlyT2; crude membrane fractions
T1 sequence (Q9Y345 1-797): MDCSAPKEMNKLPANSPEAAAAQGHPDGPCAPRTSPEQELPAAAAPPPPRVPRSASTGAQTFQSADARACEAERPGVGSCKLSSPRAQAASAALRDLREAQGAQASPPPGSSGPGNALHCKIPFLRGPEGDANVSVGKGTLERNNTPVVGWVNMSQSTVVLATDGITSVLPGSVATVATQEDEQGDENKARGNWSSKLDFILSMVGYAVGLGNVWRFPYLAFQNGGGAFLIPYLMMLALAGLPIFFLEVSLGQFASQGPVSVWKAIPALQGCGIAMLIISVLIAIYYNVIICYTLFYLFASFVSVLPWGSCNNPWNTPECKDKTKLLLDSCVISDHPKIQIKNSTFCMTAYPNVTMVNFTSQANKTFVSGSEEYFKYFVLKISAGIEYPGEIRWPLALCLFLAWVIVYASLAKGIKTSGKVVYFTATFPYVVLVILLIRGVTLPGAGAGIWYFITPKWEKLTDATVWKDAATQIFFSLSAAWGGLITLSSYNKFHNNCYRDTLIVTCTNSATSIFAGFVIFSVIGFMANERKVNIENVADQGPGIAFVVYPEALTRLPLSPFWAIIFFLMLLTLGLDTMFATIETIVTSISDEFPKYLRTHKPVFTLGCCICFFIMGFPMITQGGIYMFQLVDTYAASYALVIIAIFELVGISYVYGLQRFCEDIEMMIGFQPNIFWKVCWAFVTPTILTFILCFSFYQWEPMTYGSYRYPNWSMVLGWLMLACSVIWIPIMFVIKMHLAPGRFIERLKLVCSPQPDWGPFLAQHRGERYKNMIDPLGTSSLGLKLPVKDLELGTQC
The assay is described as follows: GlyT2 MS Binding Assays: kinetic (dissociation and association) experiments. On the procedure:
For the determination of the dissociation rate constant of Org25543 the so‐called displacer method was applied. Thus, after the target protein GlyT2 had been incubated with the reporter ligand Org25543 at a defined concentration (final concentration: 10 nM) and the binding allowed to reach equilibrium (1 h) dissociation was initiated by addition of 8 (final concentration: 30 μM). Overall, 12 samples were taken, the first after 15 s and the last after 3 h, and processed as described for competitive binding experiments. The same way nonspecific binding was determined except that the target protein had been subjected to a heat‐shock before. Plotting of specific binding calculated from total and nonspecific binding against time yielded the respective dissociation curves.
Next, for the determination of the association kinetics of Org25543 association experiments had to be performed. By the knowledge of [L] and k off, from k obs as the primary result of such experiments, finally, the derived rate constant k on becomes accessible by using the relation given at Equation 1, the transformed form of which is Equation 2. (1) kobs=kon×L+koff (2) kon=(kobs-koff)/L
For the determination of k obs Org25543 was added to the target protein, to start the association process, which was then stopped at eleven different time points (15 s–2 h), to measure the amount of bound marker at these defined time points. The nonspecific binding was determined for the same time points like for total binding samples but utilizing target material that had been subjected to a heat‐shock before. The concentration of the reporter ligand Org25543 was set to a value of 10 nM. […] For the establishment of association curves specific binding calculated from total binding and nonspecific binding was plotted against time.
Dissociation experiments via displacing Org25543 from GlyT2 with an excess of competitor were performed in 25 mL round bottom flasks made of glass (Duran Wheaton Kimble Life Sciences GmbH, Wertheim, Germany). For determining dissociation rate constants by the displacer approach GlyT2 membrane fractions were pre‐incubated with Org25543 at a nominal concentration of 10 nM at 37 °C in a water bath for 1 h in a total volume of 24.85 mL. The solution and the water bath were stirred constantly with magnetic stir bars at a frequency of ∼500 rpm. After 1 h of incubation dissociation was initiated by adding 150 μL of 8 resulting in […] of 30 μM. After defined time points (15 s–3 h, twelve dissociation time points, samples for each time point were prepared in triplicates) dissociation was terminated via vacuum filtration and the samples were treated the same way as described in Experimental Section MS Binding Assay: General procedure. Nonspecific binding was determined at the same time points as for the dissociation samples but incubating 10 nM Org25543 in the presence of 30 μM 8 and heat‐shocked GlyT2 membrane preparations (triplicate).

In assay [3] the test system is GlyT2. The note with it: ref 23; read-out: IC50 in [3H]glycine uptake assay; cited from earlier work.
Assay [4] concerns GlyT2. Further details: method as in PMID 15964938. Conditions: ref 27; read-out: IC50 in FLIPR membrane potential assay; cited from earlier work.

SMILES strings stand for the structures. Values joined by “and” are separate entries in the source; they are usually repeats but may differ in a detail not shown here. Equal values may be shown once. “Also recorded” adds a separate entry of the source. Read-outs that look alike come from different tables or passages of the source.

For `COc1cc(C(=O)NCC2(N(C)C)CCCC2)cc(OC)c1OCc1ccccc1` [Org25543, N‐[[1‐(dimethylamino)cyclopentyl]methyl]‐3,5‐dimethoxy‐4‐(phenylmethoxy)benzamide], the results for the IC50 in assay [1], in assay [3] and in assay [4] were 16 to 31 nM, 16 ± 1.9 nM and 31 ± 6 nM, respectively. In assay [2], the affinity, expressed as Kd, was 6.99 nM. Further, in assay [2] (Org25543 10 nM, 37 °C, mean±SEM, n=3), the “k obs (observed association rate constant)” value was 1.72±0.01×10^−2 s^−1 and 1.72×10^−2 s^−1. In addition, the koff in assay [2] (Org25543 10 nM, displacement by 30 μM 8, 37 °C, mean±SEM, n=3, read-out: k off (dissociation rate constant)) was 0.00707 s⁻¹. In addition, the kon in assay [2] (calculated as (k obs−k off)/L, read-out: k on (association rate constant)) was 1.01e+06 M⁻¹ s⁻¹. In assay [2] (dissociation experiments), the “reversibility of binding at GlyT2, in words” value is given as “fully reversible; also recorded: full reversibility”.
